Test results from PubChem BioAssay AID1259407 (Chemical Carcinogenesis Research Information System (CCRIS), 2018).
The source made the active and inactive calls. How the calls were made is not given here.

Test system: CCRIS mutagenicity, Ames/micronucleus/aberration tests
Assay: CCRIS mutagenicity studies
[1] = Test System: AMES SALMONELLA TYPHIMURIUM, Strain/Indicator: TA100, Metabolic Activation: NONE, Method: PREINCUBATION
[2] = Test System: AMES SALMONELLA TYPHIMURIUM, Strain/Indicator: TA1535, Metabolic Activation: NONE, Method: PREINCUBATION
[3] = Test System: AMES SALMONELLA TYPHIMURIUM, Strain/Indicator: TA98, Metabolic Activation: NONE, Method: STANDARD PLATE
[4] = Test System: AMES SALMONELLA TYPHIMURIUM, Strain/Indicator: TA98, Metabolic Activation: RAT, LIVER, S-9, AROCLOR 1254, Method: STANDARD PLATE
[5] = Test System: AMES SALMONELLA TYPHIMURIUM, Strain/Indicator: TA100, Metabolic Activation: NONE, Method: STANDARD PLATE
[6] = Test System: AMES SALMONELLA TYPHIMURIUM, Strain/Indicator: TA100, Metabolic Activation: RAT, LIVER, S-9, AROCLOR 1254, Method: STANDARD PLATE

Measured: mutagenic call

O=NN1CCOCC1
active: End Point: IN VITRO CHROMOSOMAL ABERRATIONS, Test System: HEPG2 HEPATOMA (HUMAN), Metabolic Activation: NONE active; positive | End Point: IN VITRO CHROMOSOMAL ABERRATIONS, Test System: V79 CELLS, Metabolic Activation: NONE active; positive | Test System: AMES SALMONELLA TYPHIMURIUM, Strain/Indicator: TA100, Metabolic Activation: HAMSTER, LIVER, S-9, AROCLOR 1254 (30%), Method: PREINCUBATION active; positive | Test System: AMES SALMONELLA TYPHIMURIUM, Strain/Indicator: TA100, Metabolic Activation: RAT, LIVER, S-9, AROCLOR 1254 (30%), Method: PREINCUBATION active; positive | Test System: AMES SALMONELLA TYPHIMURIUM, Strain/Indicator: TA100, Metabolic Activation: RAT, LIVER, S-9, AROCLOR 1254, Method: PREINCUBATION active; positive | Test System: AMES SALMONELLA TYPHIMURIUM, Strain/Indicator: TA100, Metabolic Activation: S-9, Method: PREINCUBATION active; positive | Test System: AMES SALMONELLA TYPHIMURIUM, Strain/Indicator: TA104, Metabolic Activation: RAT, LIVER, S-9, AROCLOR 1254, Method: PREINCUBATION active; positive | Test System: AMES SALMONELLA TYPHIMURIUM, Strain/Indicator: TA1530, Metabolic Activation: RAT, LIVER, S-9, Method: STANDARD PLATE active; positive | Test System: AMES SALMONELLA TYPHIMURIUM, Strain/Indicator: TA1535, Metabolic Activation: RAT, LIVER, HEPATOCYTES, Method: PREINCUBATION active; positive | Test System: AMES SALMONELLA TYPHIMURIUM, Strain/Indicator: TA1535, Metabolic Activation: RAT, LIVER, S-9, AROCLOR 1254, Method: PREINCUBATION active; positive | Test System: AMES SALMONELLA TYPHIMURIUM, Strain/Indicator: TA1535, Metabolic Activation: RAT, LIVER, S-9, AROCLOR, Method: PREINCUBATION active; positive | Test System: AMES SALMONELLA TYPHIMURIUM, Strain/Indicator: TA1535, Metabolic Activation: RAT, LIVER, S-9, SODIUM PHENOBARBITONE, Method: PREINCUBATION active; positive | Test System: AMES SALMONELLA TYPHIMURIUM, Strain/Indicator: TA1535, Metabolic Activation: RAT, LIVER, S-9, Method: PREINCUBATION active; positive | Test System: AMES SALMONELLA TYPHIMURIUM, Strain/Indicator: TA1975, Metabolic Activation: RAT, LIVER, S-9, AROCLOR 1254, Method: PREINCUBATION active; positive | Test System: CHINESE HAMSTER V-79, Strain/Indicator: V-79/8-AZAGUANINE, Metabolic Activation: RAT, LIVER, S-15, PHENOBARBITAL, Method: STANDARD PLATE active; positive | Test System: UDS RODENT HEPATOCYTES, Strain/Indicator: THY INCORP (NON-S-PHASE), Method: AUTORADIOGRAPHY active; positive
inactive: End Point: IN VITRO CHROMOSOMAL ABERRATIONS, Test System: VH10 CELLS (HUMAN), Metabolic Activation: NONE inactive; negative | Test System: AMES SALMONELLA TYPHIMURIUM, Strain/Indicator: TA98, Metabolic Activation: HAMSTER, LIVER, S-9, AROCLOR 1254 (30%), Method: PREINCUBATION inactive; negative | Test System: AMES SALMONELLA TYPHIMURIUM, Strain/Indicator: TA98, Metabolic Activation: NONE, Method: PREINCUBATION inactive; negative | Test System: AMES SALMONELLA TYPHIMURIUM, Strain/Indicator: TA98, Metabolic Activation: RAT, LIVER, S-9, AROCLOR 1254 (30%), Method: PREINCUBATION inactive; negative | Test System: AMES SALMONELLA TYPHIMURIUM, Strain/Indicator: TA98, Metabolic Activation: S-9, Method: PREINCUBATION inactive; negative | [1] inactive; negative | Test System: AMES SALMONELLA TYPHIMURIUM, Strain/Indicator: TA100, Metabolic Activation: TOBACCO CELLS, Method: PREINCUBATION inactive; negative | [2] inactive; negative

Cc1cccc2c1cc1ccc3cccc4ccc2c1c34
inactive: Test System: AMES SALMONELLA TYPHIMURIUM, Strain/Indicator: TA100, Metabolic Activation: RAT, INTACT HEPATOCYTES, AROCLOR 1254, Method: PREINCUBATION inactive; negative
active: Test System: AMES SALMONELLA TYPHIMURIUM, Strain/Indicator: TA100, Metabolic Activation: RAT, NADPH-FORTIFIED HOMOGENIZED HEPATOCYTES, AROCLOR 1254, Method: PREINCUBATION active; positive

CCCN(N=O)/C(N)=N/[N+](=O)[O-]
active: [1] active; positive | Test System: AMES SALMONELLA TYPHIMURIUM, Strain/Indicator: TA100, Metabolic Activation: RAT, LIVER, S-9, KC500 OR PHENOBARBITAL, Method: LIQUID SUSPENSION active; positive | [2] active; positive | Test System: AMES SALMONELLA TYPHIMURIUM, Strain/Indicator: TA1535, Metabolic Activation: NONE, Method: STANDARD PLATE active; positive | Test System: AMES SALMONELLA TYPHIMURIUM, Strain/Indicator: TA1535, Metabolic Activation: RAT, LIVER, S-9, KC500 OR PHENOBARBITAL, Method: LIQUID SUSPENSION active; positive | Test System: AMES SALMONELLA TYPHIMURIUM, Strain/Indicator: YG7104, Metabolic Activation: NONE, Method: PREINCUBATION active; positive | Test System: AMES SALMONELLA TYPHIMURIUM, Strain/Indicator: YG7108, Metabolic Activation: NONE, Method: PREINCUBATION active; positive | Test System: AMES SALMONELLA TYPHIMURIUM, Strain/Indicator: YG7112, Metabolic Activation: NONE, Method: PREINCUBATION active; positive | Test System: AMES SALMONELLA TYPHIMURIUM, Strain/Indicator: YG7113, Metabolic Activation: NONE, Method: PREINCUBATION active; positive

O=[N+]([O-])c1ccc2ccc3cc4c(c5ccc1c2c35)C=CCC4
inactive: [5] inactive; negative
active: Test System: AMES SALMONELLA TYPHIMURIUM, Strain/Indicator: TA98(1,8-DNP6), Metabolic Activation: NONE, Method: STANDARD PLATE active; positive | Test System: AMES SALMONELLA TYPHIMURIUM, Strain/Indicator: TA98(1,8-DNP6), Metabolic Activation: RAT, LIVER, S-9, AROCLOR 1254, Method: STANDARD PLATE active; positive | Test System: AMES SALMONELLA TYPHIMURIUM, Strain/Indicator: TA98(NR), Metabolic Activation: NONE, Method: STANDARD PLATE active; positive | Test System: AMES SALMONELLA TYPHIMURIUM, Strain/Indicator: TA98(NR), Metabolic Activation: RAT, LIVER, S-9, AROCLOR 1254, Method: STANDARD PLATE active; positive | [3] active; positive | [4] active; positive | [6] active; positive

Cc1ccc(C)c2c1ccc1ccccc12
inactive: [3] inactive; negative | [5] inactive; negative
active: [4] active; positive | [6] active; positive
